Legend:
CSL = CSL (Homo sapiens, UniProt Q06330); experiment: Surface plasmon resonance binding to CSL; details: SPR, equilibrium response fitted to 1:1 binding model
Procedure: (§1) The inhibitors described herein were subjected to surface plasmon resonance (“SPR”) to determine their binding constants to the NICD and CSL components of the NTC. In particular, the target protein (NICD1) was immobilized on the dextran surface of the SPR sensor chip. Through a microflow system, a solution with the inhibitor was injected over the immobilized protein layer. The inhibitor bound to the immobilized protein, which led to an increase in SPR signal, indicating association of the ligand to the target protein. After 45 seconds, buffer solution was injected on the microfluidics that dissociated the bound complex between the ligand and the inhibitor. As the inhibitor dissociated from the ligand, a decrease in SPR signal was observed. The equilibrium dissociation constant KD was determined by plotting the equilibrium response (Req) as a function of the concentration of the ligand, and fitting the data to a 1:1 binding model. The results are listed in […].

NICD1 = biological target: T1, NICD1 (Homo sapiens, UniProt P46531); experiment: Surface plasmon resonance binding to immobilized NICD; details: SPR, equilibrium response fitted to 1:1 binding model
T1 construct: the intracellular domain of Notch (“NICD”)
T1 sequence (P46531 1754-2555 limits assumed): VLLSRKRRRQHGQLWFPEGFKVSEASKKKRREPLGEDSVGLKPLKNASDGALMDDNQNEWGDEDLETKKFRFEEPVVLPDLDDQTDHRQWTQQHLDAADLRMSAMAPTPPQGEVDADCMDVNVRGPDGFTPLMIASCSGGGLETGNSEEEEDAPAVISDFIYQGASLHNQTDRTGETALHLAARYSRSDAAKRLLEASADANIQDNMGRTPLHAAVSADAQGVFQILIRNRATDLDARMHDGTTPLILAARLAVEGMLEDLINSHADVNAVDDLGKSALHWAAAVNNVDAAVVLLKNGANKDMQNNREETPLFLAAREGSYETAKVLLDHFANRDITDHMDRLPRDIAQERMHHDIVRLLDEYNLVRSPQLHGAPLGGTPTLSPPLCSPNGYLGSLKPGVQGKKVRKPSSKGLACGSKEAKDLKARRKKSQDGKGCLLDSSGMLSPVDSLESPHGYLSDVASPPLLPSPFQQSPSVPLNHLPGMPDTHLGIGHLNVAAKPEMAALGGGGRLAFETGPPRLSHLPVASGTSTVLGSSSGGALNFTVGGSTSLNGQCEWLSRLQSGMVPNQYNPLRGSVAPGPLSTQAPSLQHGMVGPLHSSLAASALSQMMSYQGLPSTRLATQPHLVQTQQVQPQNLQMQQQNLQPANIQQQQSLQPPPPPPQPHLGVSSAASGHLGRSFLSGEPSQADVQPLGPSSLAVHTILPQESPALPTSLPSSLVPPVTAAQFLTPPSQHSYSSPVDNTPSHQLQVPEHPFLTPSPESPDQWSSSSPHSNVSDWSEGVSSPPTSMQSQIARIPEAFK
Procedure: as §1

[1] = biological target: T2, Notch transcriptional activation complex (CSL, Notch1, MAML1 on DNA) (Homo sapiens, UniProt P46531+Q06330); experiment: Notch complex assembly assay (ALPHASCREEN); format: biochemical
T2 construct: the intracellular domain of Notch (“NICD”); made in house; host or cells: SF21 insect cells (baculovirus)
T2 sequence (P46531 1754-2555 limits assumed): as above
T2 sequence (Q06330 whole entry, the tested form may be a part): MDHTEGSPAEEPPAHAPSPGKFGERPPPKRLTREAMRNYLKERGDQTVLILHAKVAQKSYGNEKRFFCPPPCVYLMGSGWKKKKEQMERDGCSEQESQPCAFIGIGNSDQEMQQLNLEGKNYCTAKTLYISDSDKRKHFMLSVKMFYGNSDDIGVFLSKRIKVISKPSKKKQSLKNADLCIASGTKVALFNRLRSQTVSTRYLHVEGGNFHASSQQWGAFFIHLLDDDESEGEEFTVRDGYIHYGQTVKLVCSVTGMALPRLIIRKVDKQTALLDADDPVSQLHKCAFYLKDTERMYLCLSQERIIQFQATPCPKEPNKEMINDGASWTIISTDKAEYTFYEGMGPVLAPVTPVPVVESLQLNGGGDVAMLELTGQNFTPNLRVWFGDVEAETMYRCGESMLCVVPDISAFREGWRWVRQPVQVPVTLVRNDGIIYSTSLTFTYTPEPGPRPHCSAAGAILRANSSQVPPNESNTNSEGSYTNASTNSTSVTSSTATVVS
From the text: An in vitro assay was developed to monitor the assembly of the Notch transcriptional complex (“NTC”) on DNA. The NTC, which includes the Notch, Mastermind (“MAML1”), and CSL proteins, binds to a specific DNA sequence in a CSL-dependent manner. For the assay, baculovirus produced CSL, Notch, and MAML1 were mixed together with a biotinylated DNA oligomer containing the CSL target sequence. Assembly of the NTC on DNA was then monitored with the proximity-based ALPHASCREEN (Perkin Elmer) using streptavidin and protein A beads (FIGS. 1A and 1B). A signal results when MAML1 is recruited to CSL bound DNA.
All recombinant proteins were expressed using baculovirus expression vectors in SF21 cells and purified. Unless otherwise stated, all assays contained 125 fmol of double stranded oligonucleotide, CSL, Notch1 and MAML1 proteins. Reactions were carried out in Tris-buffered saline with 0.1% Tween (“TBS-T”) buffer containing 0.2% bovine serum albumin (“BSA”) and 100 ug/mL salmon sperm DNA. Briefly, the Notch complex was assembled on a biotinylated double stranded (“DS”) oligonucleotide harboring one CSL binding site (5′-[…]-3′). Complex assembly was quantitated using ALPHASCREEN technology (Perkin Elmer). Proteins in the complexes were detected using specific antibodies to either MAML1 (Cell signaling, D3K7B), Notch1 (Abcam, 52627) or CSL (anti-His, Abcam 18184). Streptavidin conjugated acceptor beads (Perkin Elmer, 6760002) were used to bind the DS oligonucleotide, and Protein-A conjugated donor beads (Perkin Elmer, 6760137) were used to detect antibody-coated proteins. For screening compounds, Notch transcriptional activation complex (“NTC”) components were added to wells that already contained the inhibitor to be assayed and allowed to incubate for 30 minutes. The ALPHASCREEN plate (Perkin Elmer, 6008350) was then read on an Envision Plate reader (Perkin Elmer) as specified by the manufacturer.
Determination of Equilibrium Dissociation Constants (KD) and Half Maximal Inhibitory Concentrations (IC50)

[2] = tested on: esophageal adenocarcinoma PDX tumors; experiment: Esophageal adenocarcinoma patient-derived xenograft (PDX); format: in vivo, mouse; details: NSG mice, two PDX models, daily IP, 1-134-83 15 mg/kg, DAPT 20 mg/kg
Procedure: The effect of the inhibitors of the disclosure on the growth of an established tumor also was investigated using two independent esophageal adenocarcinoma patient-derived xenograft (“PDX”) models. Tumors were established in NSG mice to the size of 250 mm^3 prior to the initiation of treatment. Mice were dosed daily via intraperitoneal (“IP”) injection with either Inhibitor No. 1-134-83 (15 mg/kg) or DAPT (20 mg/kg), and compared to DMSO vehicle control. […] Following 24 days of treatment, tumors were harvested and Notch-target gene transcription was evaluated. […] (FIG. 4) Six-week-old NOD-SCID gamma (“NSG”) mice were purchased from Jackson Laboratories and CD-1 Nude mice were purchased from Charles River Laboratories. For the cell line based xenografts assay, 5×10^6 OE19 cells in 200 μl serum-free culture medium were injected subcutaneously per mouse. The mice in the treatment group were injected with 15 mg/kg of Inhibitor No. 1-134-83 daily, and the mice in the control group were injected with the same volume of vehicle (DMSO). Subcutaneous tumor growth was measured once every 4 days using calipers along with body weight. The experiment was discontinued on day 28. PDX cancer models were established, as described in Zhang et al, Establishment of Patient-Derived Xenograft (PDX) Models of Human Breast Cancer, Current Protocols in Mouse Biology, 3:21-29 (2013), in NSG mice. Briefly, 10 mm^3 pieces of primary EAC29 PDX tumor were transplanted subcutaneously into the flanks of NSG mice using a 13G telescopic needle. When the tumors reached 200 mm^3, the mice were split into two uniform groups for treatment. Compound 1-134-83 (15 mg/kg) and vehicle were administered daily by inraperitoneal (“IP”) injection for 24 days. Tumor growth was monitored every 4 days and tumor volume was measured by the formula: Volume=(S×S×L)/2, where S and L are the short and long dimensions. The xenograft tumors were harvested, weighed and samples were subjected to histological examination and by qPCR.

[3] = tested on: cancer cell lines (OE33, 786-0 and panel); experiment: Colony formation assay; format: cell-based, human; details: 7 days
Procedure: (§2) The effect of inhibitor treatment on Notch-target gene transcription also was investigated (FIGS. 2C and 2D). […] As proof of specificity, transcription of the housekeeping gene, HPRT, was unaltered in treated cells. To test the effects of Notch inhibition on proliferation, a colony formation assay was performed.
(§3) To extend the analysis of tumor cell growth inhibition, several commonly used cancer cell lines were selected to test for sensitivity to Inhibitor No. 1-134-83 (FIGS. 3A and 3B). […] In this analysis, sensitivity to DAPT is taken to indicate specific inhibition of Notch activity. […] Cells that are refractory to DAPT were equally resistant to Inhibitor No. 1-134-83.
Cells were plated into a 6 well plate at a density of 2000 cells/cm^2. Inhibitor treatment commenced 24 hours post seeding, and the media containing inhibitor was changed every 48 hours thereafter. After 168 hours, cells were fixed with ice cold methanol for 10 minutes, stained for 1 hour with crystal violet, de-stained with water, and allowed to dry.

[4] = tested on: NICD in OE33 and 786-0 cells; experiment: Western analysis of NICD levels; format: cell-based, human; details: OE33 and 786-0 cell lysates
Procedure: (§4) The effect of inhibitor treatment on the assembly of the NTC in cells was investigated.
Protein analysis was carried out using conventional SDS-PAGE and transfer techniques. Blots were probed with the indicated antibody (“Ab”), using standard conditions, and detected using enhanced chemiluminescence (“ECL”). The following Ab were used: anti-Notch1 (ab52627, abcam), anti-Notch1^val1744 (4147S, Cell Signaling Technology) and anti-GAPDH (ab9483, Abcam).

[5] = tested on: MAML1 and Notch1 occupancy on HES1 promoter in OE33 and 786-0 cells; experiment: Chromatin immunoprecipitation (ChIP) on the HES1 locus; format: cell-based, human; details: 24 hours
Procedure: as §4
Cells (8×10^6 OE33 cells or 10×10^6 786-0 cells) were plated onto a 15 cm tissue culture dish a day prior to treatment. Cells were then treated for 24 hours with (N—[N-(3,5-difluorophenacetyl)-L-alanyl]-S-phenylglycine t-butyl ester (“DAPT”, 5 μM), Inhibitor No. 1-134-83 (25 μM), or DMSO vehicle. Following treatment, cells were cross-linked for 10 minutes with 1% formaldehyde. The reaction was then stopped by adding […] glycine. Cells were collected in SDS lysis buffer (1% SDS, 10 mM EDTA, 50 mM Tris-HCl pH 8.0) and sonicated to yield chromatin fragments of approximately 300 to 800 bp (8 minutes at high level for OE33 cells; 5 minutes at medium level for 786-0 cells in BIORUPTOR UCD-200 sonicator). Lysates were divided into equal parts and immunoprecipitated with either α-Notch1 (A301-894A, Bethyl Laboratories) or α-MAML1 (12166s, Cell Signaling Technology) antibody. Protein:DNA immunoprecipitates were then reverse cross-linked at 65° C. in 200 mM NaCl for 4 hours, followed by incubation with RNase A and proteinase K. DNA was then purified using a PCR purification kit (28104,
Qiagen). Immunoprecipitated DNA was then detected by SYBR green qPCR using HES1 specific oligonucleotide primers (forward: 5′CGTGTCTCCTCCTCCCATT3′; reverse: 5′GGGGGATTCCGCTGTTAT3′).

[6] = tested on: Notch target gene transcription; experiment: RT-qPCR of Notch target genes in cancer cell lines; format: cell-based, human
Procedure: as §2, §3
RT-PCR analysis was performed using TaqMan probes according to manufacturer's instructions. In particular, 80 ng of RNA equivalent was used per reaction. Gene expression was normalized to the TATA-binding protein (“TBP”) gene. As a control, hypoxanthine phosphoribosyltransferase 1 (“HPRT”) gene expression was also monitored.

CSL, sequence (Q06330 whole entry): as the sequence (Q06330 whole entry, the tested form may be a part) above

Row | Compound | Kd (CSL) [µM] | Kd (NICD1) [µM] | IC50 [1] [µM] | further results
1 | COc1cc(/C=C2\SC(=S)NC2=O)ccc1OCC(=O)O [1-134-02] | 3.6 ± 0.9 | 2.9 ± 0.6 | 0.5 | 
2 | C=CCc1cc(/C=C2\SC(=S)NC2=O)cc(OC)c1OCC(=O)O [1-134] | 15 ± 3 | 17 ± 5 | 6 | 
3 | C[C@H](NC(=O)Cc1cc(F)cc(F)c1)C(=O)N[C@H](C(=O)OC(C)(C)C)c1ccccc1 [DAPT, N—[N-(3,5-difluorophenacetyl)-L-alanyl]-S-phenylglycine t-butyl ester, reference compound] |  |  |  | growth of established tumor [2]: stunted growth to a similar level achieved with DAPT treatment; colony formation ([3]; 786-0 and OE33 cells): inhibited the cell colony forming ability of cells; colony formation ([3]; sensitive (Notch dependent) cell lines): decrease in colony formation; levels of NICD in cells [4]: decrease in the NICD pool; occupancy of MAML1 on the HES1 promoter [5]: decreased; occupancy of NOTCH1 on the HES1 promoter [5]: decreased; Notch target gene transcription ([6]; OE33 and 786-0 cells, qPCR): significant decrease; transcription of control gene HPRT ([6]; OE33 and 786-0 cells, qPCR): not affected; Notch target gene transcription ([6]; insensitive cancer cell lines of the panel, 48 hrs): do not show a statistically significant reduction; Notch target gene transcription ([6]; sensitive cancer cell lines of the panel, 48 hrs, DAPT 10, 1-134-83 15 and 25 μM): significantly reduced
4 | O=C(O)COc1ccccc1/C=C1\SC(=S)NC1=O [NADi-090] | 3.4 ± 0.7 | 25 ± 4 | 0.07 | 
5 | COc1cccc(/C=C2\SC(=S)N(CC(=O)N(C)C)C2=O)c1O [NADi-203, (Z)-2-(5-(2-Hydroxy-3-methoxybenzylidene)-4-oxo-2-thioxothiazolidin-3-yl)-N,N-dimethylacetamide] | 6.4 ± 0.7 | 5.7 ± 0.9 | 0.5 | 
6 | CN(C)C(=O)CN1C(=O)/C(=C/c2cc(F)ccc2O)SC1=S [NADi-239, (Z)-2-(5-(5-Fluoro-2-hydroxybenzylidene)-4-oxo-2-thioxothiazolidin-3-yl)-N,N-dimethylacetamide] | 13 ± 2 | 3.7 ± 0.8 | 0.5 | 

Source: patent US10501413B2, “Inhibitors of the Notch transcriptional activation complex and methods for use of the same” (UNIVERSITY OF MIAMI, priority 2015, dated 2019)
